Measured values reported in article PMC7367283, “A PIP2 substitute mediates voltage sensor-pore coupling in KCNQ activation” (Communications Biology, 2020).

Biological target: T1, HCN4 (Homo sapiens, UniProt Q9Y3Q4)
T1 sequence (Q9Y3Q4 1-1203): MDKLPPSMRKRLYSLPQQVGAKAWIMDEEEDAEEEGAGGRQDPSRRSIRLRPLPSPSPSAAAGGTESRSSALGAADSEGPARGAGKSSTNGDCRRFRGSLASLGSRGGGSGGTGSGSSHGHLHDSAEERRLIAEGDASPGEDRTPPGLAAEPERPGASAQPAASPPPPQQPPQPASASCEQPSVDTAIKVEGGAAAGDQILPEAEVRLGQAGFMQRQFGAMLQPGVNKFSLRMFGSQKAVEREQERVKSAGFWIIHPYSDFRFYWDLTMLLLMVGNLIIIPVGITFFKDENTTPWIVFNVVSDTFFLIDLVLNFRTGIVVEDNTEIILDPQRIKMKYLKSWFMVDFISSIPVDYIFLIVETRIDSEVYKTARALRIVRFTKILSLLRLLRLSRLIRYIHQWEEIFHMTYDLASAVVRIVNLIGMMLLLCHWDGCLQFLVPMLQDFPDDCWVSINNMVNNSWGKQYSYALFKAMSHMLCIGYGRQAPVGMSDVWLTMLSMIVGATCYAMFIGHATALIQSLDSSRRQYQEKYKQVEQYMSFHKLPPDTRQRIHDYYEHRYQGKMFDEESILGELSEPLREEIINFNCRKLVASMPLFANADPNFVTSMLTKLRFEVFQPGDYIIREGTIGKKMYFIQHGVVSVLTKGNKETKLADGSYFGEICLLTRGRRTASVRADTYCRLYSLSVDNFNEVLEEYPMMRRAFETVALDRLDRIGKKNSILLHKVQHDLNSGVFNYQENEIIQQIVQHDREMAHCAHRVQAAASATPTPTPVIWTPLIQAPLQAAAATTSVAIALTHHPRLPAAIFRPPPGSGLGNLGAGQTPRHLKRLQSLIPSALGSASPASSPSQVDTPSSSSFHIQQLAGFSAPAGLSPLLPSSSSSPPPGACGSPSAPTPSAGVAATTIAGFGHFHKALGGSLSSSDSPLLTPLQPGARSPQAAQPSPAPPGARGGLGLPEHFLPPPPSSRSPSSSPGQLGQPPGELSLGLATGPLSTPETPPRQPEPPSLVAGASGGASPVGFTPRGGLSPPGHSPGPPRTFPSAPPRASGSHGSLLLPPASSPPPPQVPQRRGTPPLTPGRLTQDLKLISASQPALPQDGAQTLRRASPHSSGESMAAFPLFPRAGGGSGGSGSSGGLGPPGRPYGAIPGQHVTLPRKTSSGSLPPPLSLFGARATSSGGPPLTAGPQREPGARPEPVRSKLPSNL
Assay: Two-electrode voltage clamp of HCN4 in Xenopus oocytes
Assay type: cell-based
Details: 10 µM CP1
Excerpt: Since CP1 has a similar effect to PIP2 in mediating VSD-pore coupling in KCNQ channels, we tested if CP1 has effects on other ion channels that are also sensitive to PIP2 or are voltage activated and share general structural features of the VSD and the pore with KCNQ. […] On the other hand, NaV1.5 and KV4.2 are voltage-gated ion channels.
Fig. 6 Effects of CP1 on other ion channels expressed in Xenopus oocytes. a Currents of Kir1.1, CaV1.2, NaV1.5, hERG, and KV4.2 before and after application of 10 µM CP1, respectively. The voltages for holding, test, and returning pulses were Kir1.1, 0 mV, −100 to +60 mV, 0; CaV1.2, −100 mV, −100 to +60, −100 mV; NaV1.5, −100, −120 to +40 mV, −120 mV; hERG, −80 mV, −90 to +60 mV, −60 mV; KV4.2, −80 mV, −100 mV to +80 mV, −40 mV; HCN4, −30 mV, −30 to −140 mV, −120 mV. b Current–voltage relations of Kir1.1 channel in the absence or presence of 10 µM CP1 (n = 7). c–g G–V relations of indicated channels with and without 10 µM CP1. The ΔV1/2 of G–V relations (mV) are CaV1.2, 3.38 ± 0.71 mV (c); NaV1.5, −2.26 ± 0.95 mV (d); hERG, 6.85 ± 1.81 mV (e); KV 4.2, −2.26 ± 2.88 mV (f); HCN4, 17.13 ± 1.59 mV (g).
Complementary DNA (cDNA) encoding human KCNQ1 (UniProtKB/Swiss‐Prot under accession no. P51787), KCNQ2 (O43526), KCNQ3 (O43525), KCNE1 (P15382), Kir1.1 (P48048), hERG (Q12809), KV4.2 (Q63881), NaV1.5 (Q14524), NaV β1 (Q07699), CaV1.2 (Q13936), CaV β1a (Q02641), CaV α2/δ1 (P54289), and HCN4 (Q9Y3Q4) were subcloned into oocyte expression vectors, respectively. Site-directed mutations of the KCNQ1 channel were all produced by overlap extension polymerase chain reaction (PCR) with high-fidelity Pfu polymerase (Stratagene, CA). The presence of the desired mutation was verified by sequencing the PCR-amplified regions. All the primer sequences used in this study are available in Supplementary Table 1. The complementary RNA (cRNA) of all these channels and mutations was transcribed in vitro with the T3, T7, or SP6 polymerase mMessage mMachine kit (Invitrogen, Thermo Fisher Scientific, MO).
The whole-oocyte ionic currents were recorded with a GeneClamp 500B amplifier (Axon Instruments, CA) or iTEV90 amplifier (HEKA, Germany) and then sampled at 1 kHz and low-pass-filtered at 2 kHz. The Patchmaster software (HEKA, Germany) was used to acquire data. The Kir1.1 current was recorded with a high K^+ bath solution containing (in mM) 96 KCl, 4 NaCl, 1 CaCl2, 2 MgCl2, and 10 HEPES, pH 7.3–7.4. The HCN4 current was recorded in ND66 solution containing (in mM) 66 NaCl, 32 KCl, 1.8 CaCl2, 1 MgCl2, and 5 HEPES, pH 7.6. All the other potassium channels were recorded in ND96 solution. The currents of CaV1.2 channel were recorded in 40 mM Ba^2+ bath solution containing (in mM) 40 Ba(OH)2, 50 TEA-OH, 2 KOH, and 5 HEPES, adjusted to pH 7.4 with methanesulfonic acid. CP1 (DISODIUM 5-BROMO-2-[9-CHLORO-3-(SULFONATOOXY) NAPHTHO [1,2-B] THIEN-2-YL]-1H-INDOL-3-YL SULFATE, Sigma-Aldrich, MO) and Chromanol 293B (Sigma-Aldrich, MO) were dissolved in bath solutions. All the chemicals were purchased from Sigma-Aldrich. To measure the I–V relations of the Kir1.1 channel, the test voltage was set from −100 to +60 mV for 1 s with 20-mV increments. The test pulses were stepped from a holding potential of 0 mV and then stepped back to 0 mV. The HCN4 currents were recorded by a test pulse between −30 and −140 mV in 10-mV step from a holding potential of −30 mV. For all the other potassium channels and CaV1.2 channel, the holding potential was −80 or −100 mV, and the test pulse was applied with 10-mV increment, which was followed with a repolarization pulse at −40 mV before returning to the holding potential. The durations of test and the repolarization pulse vary for different channels to allow the activation and deactivation of the channel to reach their steady states.

ΔV1/2 of G–V relations: 17.13 ± 1.59 mV
G/Gmax Mean (Fig. 6g) (voltage -30 mV): 0.0988
G/Gmax Mean (Fig. 6g) (voltage -40 mV): 0.0945
G/Gmax Mean (Fig. 6g) (voltage -50 mV): 0.1008
G/Gmax Mean (Fig. 6g) (voltage -60 mV): 0.1162
G/Gmax Mean (Fig. 6g) (voltage -70 mV): 0.1464
G/Gmax Mean (Fig. 6g) (voltage -80 mV): 0.2025
G/Gmax Mean (Fig. 6g) (voltage -90 mV): 0.2959
G/Gmax Mean (Fig. 6g) (voltage -100 mV): 0.4355
G/Gmax Mean (Fig. 6g) (voltage -110 mV): 0.6065
G/Gmax Mean (Fig. 6g) (voltage -120 mV): 0.7756
G/Gmax Mean (Fig. 6g) (voltage -130 mV): 0.9097
G/Gmax Mean (Fig. 6g) (voltage -140 mV): 1.0000
Structure (SMILES): O=S(=O)([O-])Oc1c(-c2sc3c(ccc4cccc(Cl)c43)c2OS(=O)(=O)[O-])[nH]c2ccc(Br)cc12.[Na+].[Na+] [CP1, DISODIUM 5-BROMO-2-[9-CHLORO-3-(SULFONATOOXY) NAPHTHO [1,2-B] THIEN-2-YL]-1H-INDOL-3-YL SULFATE]
